Values quoted from earlier work, collected in patent publication US6040300A, “Method of preventing colon cancer with vitamin D3 analogues” (Arch Development Corporation, priority 1995, dated 2000).

Key:
[1] = tested on: chemically-induced colonic tumors; settings: in vivo; cited from earlier work
[2] = tested on: AOM metabolism; settings: cited from earlier work
[3] = tested on: colon carcinogenesis induced by 1,2-dimethylhydrazine (DMH); settings: dietary supplementation; high fat diet; cited from earlier work
[4] = tested on: class II antigens; settings: monocytes and lymphocytes; cited from earlier work
[5] = tested on: ornithine decarboxylase (ODC); settings: induced by various chemical carcinogens, preneoplastic period; cited from earlier work
[6] = tested on: suppressor T cell; settings: cited from earlier work
[7] = tested on: malignant cell lines, including several derived from human colon adenocarcinomas; settings: in vitro; cited from earlier work
[8] = tested on: c-myc mRNA; settings: HL-60 cells; cited from earlier work
[9] = tested on: MHC class I and II antigens; settings: colonic tumor formation, AOM model; cited from earlier work

SMILES: C=C1/C(=C\C=C2/CCC[C@]3(C)[C@@H]([C@H](C)CCCC(C)C)CC[C@@H]23)C[C@@H](O)C[C@@H]1O [1α(OH)D3, 1α-hydroxyvitamin D3]
- protection against chemically-induced colonic tumors [1]: protect against the development of chemically-induced colonic tumors

SMILES: c1cn[nH]c1 [pyrazole]
- inhibition of AOM metabolism [2]: inhibition of AOM metabolism

SMILES: C=C1CC[C@H](O)C/C1=C/C=C1\CCC[C@]2(C)[C@@H]([C@H](C)CCCC(C)C)CC[C@@H]12 [vitamin D3, cholecalciferol]
- inhibition of colon carcinogenesis incidence [3]: inhibit the incidence of colon carcinogenesis

SMILES: C=C1/C(=C\C=C2/CCC[C@]3(C)[C@@H]([C@H](C)CCCC(C)(C)O)CC[C@@H]23)C[C@@H](O)C[C@@H]1O [1α,25(OH)2 D3, 1α,25-dihydroxyvitamin D3]
- expression of class II antigens [4]: effect the expression of class II antigens by monocytes and lymphocytes
- inhibition of increase in colonic mucosal ODC [5]: inhibit the increase in colonic mucosal ODC
- suppressor T cell activity [6]: promote suppressor T cell activity
- protection against chemically-induced colonic tumors [1]: protect against the development of chemically-induced colonic tumors
- inhibition of proliferation [7]: inhibit the proliferation of a number of malignant cell lines in vitro
- c-myc mRNA expression [8]: decrease c-myc mRNA expression in HL-60 cells

SMILES: C[C@H](CCC(=O)O)[C@H]1CC[C@H]2[C@@H]3[C@@H](O)C[C@@H]4C[C@H](O)CC[C@]4(C)[C@H]3CC[C@]12C [ursodeoxycholic acid]
- chemopreventive effect paralleled by MHC antigen alterations [9]: paralleled by alterations in the expression of these antigens

SMILES: CN1C(C(=O)Nc2ccccn2)=C(O)c2ccccc2S1(=O)=O [piroxicam]
- chemopreventive effect paralleled by MHC antigen alterations [9]: paralleled by alterations in the expression of these antigens
